Assay results taken from patent US11478496B2, “Treatments of prostate cancer” (THE FLORIDA INTERNATIONAL UNIVERSITY BOARD OF TRUSTEES, priority 2020, dated 2022).

Key:
LAPC4 xenograft = test system: LAPC4 xenograft
Source text: Human prostate cancer cell line LAPC4 is used to implant into immunocompromised NOD scid male mice. Once tumor sizes reach 0.5 cm^3, the mice are separated into two groups. […] At the end of the 4-week treatment, mice are euthanized. Their tumors are excised and weighed. Tumors, samples of adjacent nonmalignant tissues, and prostates are collected for comparative analysis.
A portion of the tumor is used for RNA-Seq (RNA sequencing) analysis to reveal the presence and quantity of the entire set of RNA present in these cells.
These measurements are performed using a fluorescence-based in situ DNA damage and repair assay.

[1] = test system: BER reconstituted with purified Pol β, FEN1, and LIG I; experiment: Secondary gel-based BER assay reconstituted with purified core BER enzymes; type: biochemical; conditions: 10 μM compound, THF substrate
Method: The secondary screening assay was performed as described below in the “Materials and Methods” section. Lane 1 represents the substrate only. Lane 2 indicates the reaction mixture with 5 nM APE1. Lanes 3 and 4 correspond to the reaction mixture with 5 nM APE1, 10 nM pol β, 10 nM FEN1 and 20 nM LIG I in the absence and presence of dimethylsulfoxide (DMSO). Lanes 5 through 19 correspond to the reaction mixture with 5 nM APE1, 10 nM pol β, 10 nM FEN1 and 20 nM LIG I in the presence of indicated compounds. The experiments were repeated at least three times. A representative gel is illustrated.
The hit compounds were subject to secondary assays to determine their ability to reduce the BER capacity when reconstituted with purified core BER enzymes, as well as their inhibitory effects on individual BER enzymes including pol FEN1 and LIG I. The effect of hit compounds on BER capacity and BER enzymes was examined using a denaturing sequencing gel-based assay. 10 μM hit compounds were incubated with 10 nM pol β, 10 nM FEN1 and 20 nM LIG I in BER reaction buffer containing 50 mM Tris-HCl (pH 7.5), 50 mM KCl, 0.1 mM EDTA, 0.1 mg/ml bovine serum albumin, and 0.01% Nonidet P-40 in the presence of 5 mM Mg^2+ and 2 mM ATP. The compounds were initially preincubated with a BER enzyme at varying concentrations for 1 h with rotation. This was followed by the addition of 25 nM ^32P-labeled substrate containing an abasic site, which was precut with 25 or 50 nM APEI. The reaction mixture (20 μL) was incubated at 37° C. for 30 min, and the reaction was terminated by 50 mM EDTA. Substrates, products, and unrepaired BER intermediates were separated by 15% urea-denaturing sequencing gel and detected by a Pharos FX Plus PhosphorImager (Bio-Rad, Hercules, Calif.).
Among the 26 identified compounds, nine were DNA intercalators or inhibitors of human DNA topoisomerases and were excluded from further studies. Thus, […] FDA approved drugs were selected for further testing. To further confirm the inhibitory effects of the lead compounds on BER, the effects of the compounds on BER reactions reconstituted with purified BER core enzymes were initially determined.

C[C@@H]1C/C=C/C=C/C=C/C=C/[C@H](O[C@@H]2O[C@H](C)[C@@H](O)[C@H](N)[C@@H]2O)C[C@@H]2O[C@](O)(C[C@@H](O)C[C@H]3O[C@@H]3/C=C/C(=O)O1)C[C@H](O)[C@H]2C(=O)O [natamycin]
toxicity for prostate cancer cells in a mouse model (LAPC4 xenograft; LAPC4 xenograft, intravenously, 4 weeks): specific toxicity for prostate cancer cells | tolerability by noncancerous tissues in a mouse model (LAPC4 xenograft; mouse, in vivo, iv): well-tolerated | BER capacity and production of the BER repair product [1]: significantly reduced BER capacity
